Experimental findings from patent US8586550B2, “Thiazole derivatives as SGLT2 inhibitors and pharmaceutical composition comprising same” (Green Cross Corporation, priority 2010, dated 2013) are described below.

For the assay, the target named is T1, Human SGLT2 (hSGLT2) (Homo sapiens, UniProt P31639).
T1 construct: expressed in transfected cells
T1 sequence (P31639 1-672): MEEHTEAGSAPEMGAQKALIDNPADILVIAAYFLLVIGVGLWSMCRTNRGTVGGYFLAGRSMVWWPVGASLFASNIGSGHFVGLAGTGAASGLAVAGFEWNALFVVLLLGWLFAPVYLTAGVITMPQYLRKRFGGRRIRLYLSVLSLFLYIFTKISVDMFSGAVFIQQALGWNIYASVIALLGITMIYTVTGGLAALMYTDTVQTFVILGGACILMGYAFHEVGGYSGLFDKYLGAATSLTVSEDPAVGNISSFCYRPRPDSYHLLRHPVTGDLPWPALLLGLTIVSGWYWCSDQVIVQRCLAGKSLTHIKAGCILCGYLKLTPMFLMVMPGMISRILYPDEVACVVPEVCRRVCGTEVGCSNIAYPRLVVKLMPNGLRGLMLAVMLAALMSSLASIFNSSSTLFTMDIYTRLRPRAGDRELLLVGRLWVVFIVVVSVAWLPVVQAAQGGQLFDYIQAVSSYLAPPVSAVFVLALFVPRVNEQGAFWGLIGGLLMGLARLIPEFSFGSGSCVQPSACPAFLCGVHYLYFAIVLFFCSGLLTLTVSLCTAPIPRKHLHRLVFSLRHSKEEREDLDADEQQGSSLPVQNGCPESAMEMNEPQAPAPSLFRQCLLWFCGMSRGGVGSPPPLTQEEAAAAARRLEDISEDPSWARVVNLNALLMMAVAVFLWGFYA
The assay is described as follows: Sodium-dependent glucose transport (14C-AMG uptake) assay in CHO cells stably expressing hSGLT2. The class given is cell-based. The following applies: CHO cells expressing hSGLT2, 14C-AMG uptake, 37° C. for 2 h; single determinations; read-out: hSGLT2 Inhibitory Activity IC50. In short, it runs like this: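 Uptake of 14C-α-methyl-D-glucopyranoside (8 μM labeled, 1 mM unlabeled, NaCl buffer pH 7.4) measured over 2 h at 37 °C with inhibitor in hSGLT2-transfected CHO cells after 10 min choline-buffer pretreatment. Radioactivity by liquid scintillation; IC50 from nonlinear regression.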
The term IC50 denotes the concentration at which inhibition is half-maximal. In the case of `OC[C@H]1O[C@@H](c2ccc(Cl)c(Cc3ncc(-c4nncs4)s3)c2)[C@H](O)[C@@H](O)[C@@H]1O` [Example 107, (2S,3R,4R,5S,6R)-2-(3-((5-(1,3,4-Thiadiazol-2-yl)thiazol-2-yl)methyl)-4-chlorophenyl)-6-(hydroxymethyl)-tetrahydro-2H-pyran-3,4,5-triol], the half-inhibitory concentration (IC50) came out at 14 nM.

`OC[C@H]1O[C@@H](c2ccc(Cl)c(Cc3ncc(C4CCCCC4)s3)c2)[C@H](O)[C@@H](O)[C@@H]1O` [Example 20, (2S,3R,4R,5S,6R)-2-(4-Chloro-3-((5-cyclohexylthiazol-2-yl)methyl)phenyl)-6-(hydroxymethyl)-tetrahydro-2H-pyran-3,4,5-triol]: the IC50 amounted to 25.4 nM.

As for `OC[C@H]1O[C@@H](c2ccc(Cl)c(Cc3ncc(-c4ccc(Cl)s4)s3)c2)[C@H](O)[C@@H](O)[C@@H]1O` [Example 8, (2S,3R,4R,5S,6R)-2-(4-Chloro-3-((5-(5-chlorothiophen-2-yl)thiazol-2-yl)methyl)phenyl)-6-(hydroxymethyl)tetrahydro-2H-pyran-3,4,5-triol], the IC50 was 13.3 nM.

Take `OC[C@H]1O[C@@H](c2cc(Cc3ncc(-c4ccco4)s3)c3ccccc3c2)[C@H](O)[C@@H](O)[C@@H]1O` [Example 104, (2S,3R,4R,5S,6R)-2-(4-((5-(Furan-2-yl)thiazol-2-yl)methyl)naphthalen-2-yl)-6-(hydroxymethyl)-tetrahydro-2H-pyran-3,4,5-triol]: the IC50 was 100 nM.

Regarding `OC[C@H]1O[C@]2(OCc3cc(Cl)c(C4(c5ncc(-c6cccs6)s5)CC4)cc32)[C@H](O)[C@@H](O)[C@@H]1O` [Example 129, (1S,3′R,4′S,5′S,6′R)-5-Chloro-6′-(hydroxymethyl)-6-(1-(5-(thiophen-2-yl)thiazole-2-yl)cyclopropyl)-3′,4′,5′,6′-tetrahydro-3H-spiro[isobenzofuran-1,2′-pyran]-3′,4′,5′-triol], the IC50 was 160 nM.

Consider `COc1cc(Cl)c(Cc2ncc(-c3ccccc3)s2)cc1[C@@H]1O[C@H](CO)[C@@H](O)[C@H](O)[C@H]1O` [Example 73, (2S,3R,4R,5S,6R)-2-(4-Chloro-2-methoxy-5-((5-phenylthiazol-2-yl)methyl)phenyl)-6-(hydroxymethyl)tetrahydro-2H-pyran-3,4,5-triol], for which the IC50 was 2.01 nM.

Take `Cc1ccc([C@@H]2O[C@H](CO)[C@@H](O)[C@H](O)[C@H]2O)cc1Cc1ncc(-c2ccco2)s1` [Example 30, (2S,3R,4R,5S,6R)-2-(3-((5-(Furan-2-yl)thiazol-2-yl)methyl)-4-methylphenyl)-6-(hydroxymethyl)tetrahydro-2H-pyran-3,4,5-triol]: the IC50 stood at 1.43 nM.

For the compound `CCCCCc1cnc(Cc2cn([C@@H]3O[C@H](CO)[C@@H](O)[C@H](O)[C@H]3O)c3ccccc23)s1` [Example 136, (2R,3S,4S,5R,6R)-2-(Hydroxymethyl)-6-(3-((5-pentylthiazol-2-yl)methyl)-1H-indol-1-yl)tetrahydro-2H-pyran-3,4,5-triol], the half-inhibitory concentration (IC50) is 210 nM.

Turning to `OC[C@H]1O[C@@H](c2cc(Cc3ncc(-c4ccco4)s3)c(Cl)cc2OCCn2cncn2)[C@H](O)[C@@H](O)[C@@H]1O` [Example 122, (2S,3R,4R,5S,6R)-2-(2-(2-(1H-1,2,4-Triazol-1-yl)ethoxy)-4-chloro-5-((5-(furan-2-yl)thiazol-2-yl)methyl)phenyl)-6-(hydroxymethyl)-tetrahydro-2H-pyran-3,4,5-triol], the IC50 was 131 nM.

Turning to `OC[C@H]1O[C@@H](n2cc(Cc3ncc(-c4ccco4)s3)c3ccccc32)[C@H](O)[C@@H](O)[C@@H]1O` [Example 130, (2R,3R,4S,5S,6R)-2-(3-((5-(Furan-2-yl)thiazol-2-yl)methyl)-1H-indol-1-yl)-6-(hydroxymethyl)-tetrahydro-2H-pyran-3,4,5-triol], the half-inhibitory concentration (IC50) was 8.75 nM.

Consider `CC(C)c1cnc(Cc2cc([C@@H]3O[C@H](CO)[C@@H](O)[C@H](O)[C@H]3O)ccc2Cl)s1` [Example 16, (2S,3R,4R,5S,6R)-2-(4-Chloro-3-((5-isopropylthiazol-2-yl)methyl)phenyl)-6-(hydroxymethyl)-tetrahydro-2H-pyran-3,4,5-triol], for which the IC50 stood at 51.4 nM.
